ChEMBL document CHEMBL1148480, “Structure-activity studies of orexin a and orexin B at the human orexin 1 and orexin 2 receptors led to orexin 2 receptor selective and orexin 1 receptor preferring ligands” (J Med Chem, 2004)
Residues, ends and D or L forms follow the SMILES beside them.

Test: Ratio of orexin-1 receptor to orexin-2 receptor in human

| Ratio | Compound |
| --- | --- |
| 18.8 | CC[C@H](C)[C@H](NC(=O)CNC(=O)[C@H](C)NC(=O)[C@H](C)NC(=O)[C@H](Cc1c[nH]cn1)NC(=O)[C@H](CC(N)=O)NC(=O)CNC(=O)[C@H](CO)NC(=O)[C@H](C)NC(=O)[C@H](CCC(N)=O)NC(=O)[C@H](CC(C)C)NC(=O)[C@H](CC(C)C)NC(=O)[C@H](CCCN=C(N)N)NC(=O)[C@@H]1CCCN1C(=O)[C@H](CC(C)C)NC(=O)[C@H](CCCN=C(N)N)NC(=O)CNC(=O)[C@H](CCC(N)=O)NC(=O)[C@H](CC(C)C)NC(=O)CN)C(=O)N[C@@H](CC(C)C)C(=O)N[C@H](C(=O)N[C@@H](CCSC)C(=O)O)[C@@H](C)O (stereo in doubt; form 1) |
| 4.3 | CC[C@H](C)[C@H](NC(=O)CNC(=O)[C@H](C)NC(=O)[C@H](C)NC(=O)[C@H](Cc1c[nH]cn1)NC(=O)[C@H](CC(N)=O)NC(=O)CNC(=O)[C@H](C)NC(=O)CNC(=O)[C@H](Cc1c[nH]cn1)NC(=O)[C@H](CC(C)C)NC(=O)[C@H](CC(C)C)NC(=O)[C@H](CCC(=O)O)NC(=O)[C@H](Cc1ccc(O)cc1)NC(=O)[C@H](CC(C)C)NC(=O)[C@@H](N)CCCN=C(N)N)C(=O)N[C@@H](CC(C)C)C(=O)N[C@H](C(=O)N[C@@H](CC(C)C)C(=O)O)[C@@H](C)O (H-RLYELLHGAGNHAAGILTL-OH) |
| > 430 | CC[C@H](C)[C@H](NC(=O)CNC(=O)[C@H](C)NC(=O)[C@H](C)NC(=O)[C@H](Cc1c[nH]cn1)NC(=O)[C@H](CC(N)=O)NC(=O)CNC(=O)[C@H](CO)NC(=O)[C@H](C)NC(=O)[C@H](CCC(N)=O)NC(=O)[C@H](C)NC(=O)[C@H](CC(C)C)NC(=O)[C@H](CCCN=C(N)N)NC(=O)[C@H](CCC(N)=O)NC(=O)[C@H](CC(C)C)NC(=O)[C@H](CCCN=C(N)N)NC(=O)CNC(=O)[C@H](CCC(N)=O)NC(=O)[C@H](CC(C)C)NC(=O)CN)C(=O)N[C@@H](CC(C)C)C(=O)N[C@H](C(=O)N[C@@H](CCSC)C(=O)O)[C@@H](C)O (H-GLQGRLQRLAQASGNHAAGILTM-OH) |
| 28.3 | CC[C@H](C)[C@H](NC(=O)CNC(=O)[C@H](C)NC(=O)[C@H](C)NC(=O)[C@H](Cc1c[nH]cn1)NC(=O)[C@H](CC(N)=O)NC(=O)CNC(=O)[C@H](CO)NC(=O)[C@H](C)NC(=O)[C@H](CCC(N)=O)NC(=O)[C@H](CC(C)C)NC(=O)[C@H](CC(C)C)NC(=O)[C@H](CCCN=C(N)N)NC(=O)[C@H](CCC(N)=O)NC(=O)[C@H](CC(C)C)NC(=O)[C@H](CCCN=C(N)N)NC(=O)CNC(=O)[C@H](CCC(N)=O)NC(=O)[C@@H]1CCCN1C(=O)CN)C(=O)N[C@@H](CC(C)C)C(=O)N[C@H](C(=O)N[C@@H](CCSC)C(=O)O)[C@@H](C)O (H-GPQGRLQRLLQASGNHAAGILTM-OH) |
| > 1750 | CC[C@H](C)[C@H](NC(=O)CNC(=O)[C@H](C)NC(=O)[C@H](C)NC(=O)[C@H](Cc1c[nH]cn1)NC(=O)[C@H](CC(N)=O)NC(=O)CNC(=O)[C@H](CO)NC(=O)[C@H](C)NC(=O)[C@H](CCC(N)=O)NC(=O)[C@H](CC(C)C)NC(=O)[C@H](CC(C)C)NC(=O)[C@H](CCCN=C(N)N)NC(=O)[C@H](CCC(N)=O)NC(=O)[C@H](CC(C)C)NC(=O)[C@@H](N)CCCN=C(N)N)C(=O)N[C@@H](CC(C)C)C(=O)N[C@H](C(=O)N[C@@H](CCSC)C(=O)O)[C@@H](C)O (H-RLQRLLQASGNHAAGILTM-OH) |
| 3.2 | CC[C@H](C)[C@H](NC(=O)CNC(=O)[C@H](C)NC(=O)[C@H](C)NC(=O)[C@H](Cc1c[nH]cn1)NC(=O)[C@H](CC(N)=O)NC(=O)CNC(=O)[C@H](C)NC(=O)CNC(=O)[C@H](Cc1c[nH]cn1)NC(=O)[C@H](CC(C)C)NC(=O)[C@H](CC(C)C)NC(=O)[C@H](CCC(=O)O)NC(=O)[C@H](Cc1ccc(O)cc1)NC(=O)[C@H](CC(C)C)NC(=O)[C@H](CCCN=C(N)N)NC(=O)[C@H](CS)NC(=O)[C@H](CO)NC(=O)[C@H](CS)NC(=O)[C@@H](N)[C@@H](C)O)C(=O)N[C@@H](CC(C)C)C(=O)N[C@H](C(=O)N[C@@H](CC(C)C)C(=O)O)[C@@H](C)O (H-TCSCRLYELLHGAGNHAAGILTL-OH) |
| 15 | CC[C@H](C)[C@H](NC(=O)CNC(=O)[C@H](C)NC(=O)[C@H](C)NC(=O)[C@H](Cc1c[nH]cn1)NC(=O)[C@H](CC(N)=O)NC(=O)CNC(=O)[C@H](CO)NC(=O)[C@H](C)NC(=O)[C@H](CCC(N)=O)NC(=O)[C@H](CC(C)C)NC(=O)[C@H](CC(C)C)NC(=O)[C@H](CCCN=C(N)N)NC(=O)[C@@H]1CCCN1C(=O)[C@H](CC(C)C)NC(=O)[C@H](CCCN=C(N)N)NC(=O)CNC(=O)[C@H](CCC(N)=O)NC(=O)[C@H](CC(C)C)NC(=O)CN)C(=O)N[C@@H](CC(C)C)C(=O)N[C@H](C(=O)N[C@@H](CCSC)C(=O)O)[C@@H](C)O (stereo in doubt; form 2) |
| 6.8 | CC[C@H](C)[C@H](NC(=O)CNC(=O)[C@H](C)NC(=O)[C@H](C)NC(=O)[C@H](Cc1c[nH]cn1)NC(=O)[C@H](C)NC(=O)CNC(=O)[C@H](CO)NC(=O)[C@H](C)NC(=O)[C@H](CCC(N)=O)NC(=O)[C@H](CC(C)C)NC(=O)[C@H](CC(C)C)NC(=O)[C@H](CCCN=C(N)N)NC(=O)[C@H](CCC(N)=O)NC(=O)[C@H](CC(C)C)NC(=O)[C@H](CCCN=C(N)N)NC(=O)CNC(=O)[C@H](CCC(N)=O)NC(=O)[C@H](CC(C)C)NC(=O)CN)C(=O)N[C@@H](CC(C)C)C(=O)N[C@H](C(=O)N[C@@H](CCSC)C(=O)O)[C@@H](C)O (stereo in doubt; form 2) |
| 2.3 | CC[C@H](C)[C@H](NC(=O)CNC(=O)[C@H](C)NC(=O)[C@H](C)NC(=O)[C@H](Cc1c[nH]cn1)NC(=O)[C@H](CC(N)=O)NC(=O)CNC(=O)[C@H](C)NC(=O)CNC(=O)[C@H](Cc1c[nH]cn1)NC(=O)[C@H](CC(C)C)NC(=O)[C@H](CC(C)C)NC(=O)[C@H](CCC(=O)O)NC(=O)[C@H](Cc1ccc(O)cc1)NC(=O)[C@H](CC(C)C)NC(=O)[C@H](CCCN=C(N)N)NC(=O)[C@H](CS)NC(=O)[C@H](CO)NC(=O)[C@H](CS)NC(=O)[C@@H](NC(=O)[C@H](CCCCN)NC(=O)[C@H](CCC(N)=O)NC(=O)[C@@H](N)CCCN=C(N)N)[C@@H](C)O)C(=O)N[C@@H](CC(C)C)C(=O)N[C@H](C(=O)N[C@@H](CC(C)C)C(=O)O)[C@@H](C)O (H-RQKTCSCRLYELLHGAGNHAAGILTL-OH) |
| 2.3 | CC[C@H](C)[C@H](NC(=O)CNC(=O)[C@H](C)NC(=O)[C@H](C)NC(=O)[C@H](Cc1c[nH]cn1)NC(=O)[C@H](CC(N)=O)NC(=O)CNC(=O)[C@H](C)NC(=O)CNC(=O)[C@H](Cc1c[nH]cn1)NC(=O)[C@H](CC(C)C)NC(=O)[C@H](CC(C)C)NC(=O)[C@H](CCC(=O)O)NC(=O)[C@H](Cc1ccc(O)cc1)NC(=O)[C@H](CC(C)C)NC(=O)[C@H](CCCN=C(N)N)NC(=O)[C@H](CS)NC(=O)[C@@H](N)CO)C(=O)N[C@@H](CC(C)C)C(=O)N[C@H](C(=O)N[C@@H](CC(C)C)C(=O)O)[C@@H](C)O (H-SCRLYELLHGAGNHAAGILTL-OH) |
| > 280 | CC[C@H](C)[C@H](NC(=O)CNC(=O)[C@@H]1CCCN1C(=O)[C@H](C)NC(=O)[C@H](Cc1c[nH]cn1)NC(=O)[C@H](CC(N)=O)NC(=O)CNC(=O)[C@H](CO)NC(=O)[C@H](C)NC(=O)[C@H](CCC(N)=O)NC(=O)[C@H](CC(C)C)NC(=O)[C@H](CC(C)C)NC(=O)[C@H](CCCN=C(N)N)NC(=O)[C@H](CCC(N)=O)NC(=O)[C@H](CC(C)C)NC(=O)[C@H](CCCN=C(N)N)NC(=O)CNC(=O)[C@H](CCC(N)=O)NC(=O)[C@H](CC(C)C)NC(=O)CN)C(=O)N[C@@H](CC(C)C)C(=O)N[C@H](C(=O)N[C@@H](CCSC)C(=O)O)[C@@H](C)O (H-GLQGRLQRLLQASGNHAPGILTM-OH) |
| 18.2 | CC[C@H](C)[C@H](NC(=O)CNC(=O)[C@H](C)NC(=O)[C@H](C)NC(=O)[C@H](Cc1c[nH]cn1)NC(=O)[C@H](CC(N)=O)NC(=O)CNC(=O)[C@H](CO)NC(=O)[C@H](C)NC(=O)[C@H](CCC(N)=O)NC(=O)[C@H](CC(C)C)NC(=O)[C@H](CC(C)C)NC(=O)[C@H](CCCN=C(N)N)NC(=O)[C@H](CCC(N)=O)NC(=O)[C@H](CC(C)C)NC(=O)[C@H](CCCN=C(N)N)NC(=O)CNC(=O)[C@@H](N)CCC(N)=O)C(=O)N[C@@H](CC(C)C)C(=O)N[C@H](C(=O)N[C@@H](CCSC)C(=O)O)[C@@H](C)O (H-QGRLQRLLQASGNHAAGILTM-OH) |
| 2.9 | CC[C@H](C)[C@H](NC(=O)CNC(=O)[C@H](C)NC(=O)[C@H](C)NC(=O)[C@H](Cc1c[nH]cn1)NC(=O)[C@H](CC(N)=O)NC(=O)CNC(=O)[C@H](C)NC(=O)CNC(=O)[C@H](Cc1c[nH]cn1)NC(=O)[C@H](CC(C)C)NC(=O)[C@H](CC(C)C)NC(=O)[C@H](CCC(=O)O)NC(=O)[C@H](Cc1ccc(O)cc1)NC(=O)[C@H](CC(C)C)NC(=O)[C@H](CCCN=C(N)N)NC(=O)[C@H](CSSC[C@H](NC(=O)[C@@H](N)CO)C(=O)N[C@@H](CCCN=C(N)N)C(=O)N[C@@H](CC(C)C)C(=O)N[C@@H](Cc1ccc(O)cc1)C(=O)N[C@@H](CCC(=O)O)C(=O)N[C@@H](CC(C)C)C(=O)N[C@@H](CC(C)C)C(=O)N[C@@H](Cc1c[nH]cn1)C(=O)NCC(=O)N[C@@H](C)C(=O)NCC(=O)N[C@@H](CC(N)=O)C(=O)N[C@@H](Cc1c[nH]cn1)C(=O)N[C@@H](C)C(=O)N[C@@H](C)C(=O)NCC(=O)N[C@H](C(=O)N[C@@H](CC(C)C)C(=O)N[C@H](C(=O)N[C@@H](CC(C)C)C(=O)O)[C@@H](C)O)[C@@H](C)CC)NC(=O)[C@@H](N)CO)C(=O)N[C@@H](CC(C)C)C(=O)N[C@H](C(=O)N[C@@H](CC(C)C)C(=O)O)[C@@H](C)O |
| > 65 | CC[C@H](C)[C@H](NC(=O)CNC(=O)[C@H](C)NC(=O)[C@H](C)NC(=O)[C@H](Cc1c[nH]cn1)NC(=O)[C@H](CC(N)=O)NC(=O)CNC(=O)[C@H](CO)NC(=O)[C@H](C)NC(=O)[C@H](CCC(N)=O)NC(=O)[C@H](CC(C)C)NC(=O)[C@H](CC(C)C)NC(=O)[C@H](CCCN=C(N)N)NC(=O)[C@H](CCC(N)=O)NC(=O)[C@H](CC(C)C)NC(=O)[C@H](CCCN=C(N)N)NC(=O)CNC(=O)[C@H](CCC(N)=O)NC(=O)[C@H](CC(C)C)NC(=O)CN)C(=O)N[C@@H](C)C(=O)N[C@H](C(=O)N[C@@H](CCSC)C(=O)O)[C@@H](C)O (H-GLQGRLQRLLQASGNHAAGIATM-OH) |
